Source: patent US8415469B2, “Compounds and methods for kinase modulation, and indications therefor” (Plexxikon Inc., priority 2005, dated 2013)

Legend:
Assay type in all cases: biochemical
Gsk3β = Gsk3β (Homo sapiens, UniProt P49841); test: AlphaScreen kinase assay, Gsk3β; conditions: read-out: IC50, activity toward kinase Gsk3β
Summary of the method: (§1)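 AlphaScreen read-out: acceptor-bead emission falls when kinase is inhibited. Biotin-peptide substrate captured on streptavidin donor beads, phospho-specific antibody on acceptor beads. 8 concentrations, 1:3 dilution series, from 20 mM DMSO stocks.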

Kit = target: T1, Kit (Homo sapiens, UniProt P10721); test: AlphaScreen kinase assay, Kit; conditions: read-out: IC50, activity toward kinase Kit
T1 construct: P1332.N6 BI PTP KIT M552-K948-X COD; His6 (N); made in house; host or cells: E. coli (PTP1B co-expressed)

Zap70 = target: T2, Zap70 (Homo sapiens, UniProt P43403); test: AlphaScreen kinase assay, Zap70; conditions: read-out: IC50, activity toward kinase Zap70
T2 construct: P1868.pFastBac1 ZAP70 D327-G606 HIS, WT; His7 (HHHHHHH) (C); made in house
T2 sequence (P43403 with tags, fused parts or gaps): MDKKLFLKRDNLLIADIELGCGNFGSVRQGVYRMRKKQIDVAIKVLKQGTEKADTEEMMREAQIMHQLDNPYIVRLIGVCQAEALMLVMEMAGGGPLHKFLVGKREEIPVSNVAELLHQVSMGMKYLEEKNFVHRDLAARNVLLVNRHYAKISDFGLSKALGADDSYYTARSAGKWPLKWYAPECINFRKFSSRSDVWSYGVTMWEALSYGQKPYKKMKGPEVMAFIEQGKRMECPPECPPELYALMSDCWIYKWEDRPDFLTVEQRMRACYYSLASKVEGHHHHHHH
Summary of the method: as §1

Ret = target: T3, Ret (Homo sapiens, UniProt P07949); test: AlphaScreen kinase assay, Ret; conditions: read-out: IC50, activity toward kinase Ret
T3 construct: P1378.pET-SF BI-PTP RET H661-R1012 HIS; made in house
T3 sequence (P07949 with tags, fused parts or gaps): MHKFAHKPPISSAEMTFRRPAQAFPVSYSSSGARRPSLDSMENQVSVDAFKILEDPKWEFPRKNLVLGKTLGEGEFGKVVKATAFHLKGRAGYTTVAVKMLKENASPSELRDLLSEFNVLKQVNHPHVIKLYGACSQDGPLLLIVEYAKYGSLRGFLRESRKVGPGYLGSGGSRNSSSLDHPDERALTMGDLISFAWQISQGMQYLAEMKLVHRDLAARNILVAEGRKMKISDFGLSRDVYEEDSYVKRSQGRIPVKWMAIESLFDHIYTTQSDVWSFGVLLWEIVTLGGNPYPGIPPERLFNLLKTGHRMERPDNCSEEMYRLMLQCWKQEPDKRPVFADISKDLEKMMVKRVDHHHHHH

Stk6 = target: T4, Stk6 (Homo sapiens, UniProt O14965); test: Z'-Lyte FRET kinase assay (Invitrogen), Stk6; conditions: read-out: IC50, activity toward kinase Stk6
T4 construct: purchased Invitrogen (Carlsbad, Calif.), screening service
T4 sequence (O14965 1-403): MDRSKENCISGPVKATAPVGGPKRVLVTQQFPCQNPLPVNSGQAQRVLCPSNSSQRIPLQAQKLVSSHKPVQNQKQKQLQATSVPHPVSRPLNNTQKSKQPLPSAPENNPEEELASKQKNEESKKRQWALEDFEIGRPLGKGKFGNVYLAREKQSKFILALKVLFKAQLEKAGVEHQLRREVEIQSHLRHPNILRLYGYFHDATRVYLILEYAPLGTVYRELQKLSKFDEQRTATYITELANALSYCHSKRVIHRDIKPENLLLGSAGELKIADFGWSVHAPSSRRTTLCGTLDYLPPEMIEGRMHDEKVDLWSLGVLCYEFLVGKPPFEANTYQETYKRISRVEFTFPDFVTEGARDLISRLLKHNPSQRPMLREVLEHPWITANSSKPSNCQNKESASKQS

Plk1 = Plk1 (Homo sapiens, UniProt P53350); test: AlphaScreen kinase assay, Plk1; conditions: read-out: IC50, activity toward kinase Plk1
Plk1, sequence (P53350 whole entry): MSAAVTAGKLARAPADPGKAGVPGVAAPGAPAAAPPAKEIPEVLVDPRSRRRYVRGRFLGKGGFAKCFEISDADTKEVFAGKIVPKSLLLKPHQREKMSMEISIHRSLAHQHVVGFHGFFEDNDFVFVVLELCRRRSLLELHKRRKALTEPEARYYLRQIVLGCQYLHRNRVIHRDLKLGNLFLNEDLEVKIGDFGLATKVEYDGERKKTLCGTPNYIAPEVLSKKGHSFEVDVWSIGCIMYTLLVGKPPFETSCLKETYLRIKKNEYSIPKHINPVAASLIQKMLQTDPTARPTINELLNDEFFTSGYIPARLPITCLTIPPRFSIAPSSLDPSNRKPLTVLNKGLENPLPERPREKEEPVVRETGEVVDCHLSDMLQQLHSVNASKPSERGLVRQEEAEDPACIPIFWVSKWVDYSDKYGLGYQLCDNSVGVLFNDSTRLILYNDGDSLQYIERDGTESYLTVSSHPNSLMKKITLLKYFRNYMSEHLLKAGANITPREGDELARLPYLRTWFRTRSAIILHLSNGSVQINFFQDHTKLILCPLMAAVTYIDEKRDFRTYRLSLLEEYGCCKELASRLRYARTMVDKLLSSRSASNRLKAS
Description: (§2) AlphaScreen assay was used to screen additional kinases. The assay is similarly dependent on the phosphorylation of a peptide substrate. In this assay, an antibody that recognizes phosphorylated substrate is bound to an acceptor bead. The peptide substrate is attached to biotin, which binds to a donor head that contains streptavidin. Thus phosphorylated substrate is bound by antibody and streptavidin, bringing the donor and acceptor heads into close proximity when kinase is not inhibited. The donor produces singlet oxygen which results in emission from the acceptor when they are in close proximity. Conversely, when kinase is inhibited, the donor and acceptor beads are not associated and the emission from the acceptor is reduced.
(§3) AlphaScreen assays were done using compounds dissolved in DMSO to a concentration of 20 mM. The compounds were diluted accordingly to the desired final concentrations in each sample well, using 1:3 serial dilution for a total of 8 concentration points.

Btk = target: T5, Btk (Homo sapiens, UniProt Q06187); test: Z'-Lyte FRET kinase assay (Invitrogen), Btk; conditions: read-out: IC50, activity toward kinase Btk
T5 construct: purchased Invitrogen (assay run by Invitrogen)
T5 sequence (Q06187 whole entry): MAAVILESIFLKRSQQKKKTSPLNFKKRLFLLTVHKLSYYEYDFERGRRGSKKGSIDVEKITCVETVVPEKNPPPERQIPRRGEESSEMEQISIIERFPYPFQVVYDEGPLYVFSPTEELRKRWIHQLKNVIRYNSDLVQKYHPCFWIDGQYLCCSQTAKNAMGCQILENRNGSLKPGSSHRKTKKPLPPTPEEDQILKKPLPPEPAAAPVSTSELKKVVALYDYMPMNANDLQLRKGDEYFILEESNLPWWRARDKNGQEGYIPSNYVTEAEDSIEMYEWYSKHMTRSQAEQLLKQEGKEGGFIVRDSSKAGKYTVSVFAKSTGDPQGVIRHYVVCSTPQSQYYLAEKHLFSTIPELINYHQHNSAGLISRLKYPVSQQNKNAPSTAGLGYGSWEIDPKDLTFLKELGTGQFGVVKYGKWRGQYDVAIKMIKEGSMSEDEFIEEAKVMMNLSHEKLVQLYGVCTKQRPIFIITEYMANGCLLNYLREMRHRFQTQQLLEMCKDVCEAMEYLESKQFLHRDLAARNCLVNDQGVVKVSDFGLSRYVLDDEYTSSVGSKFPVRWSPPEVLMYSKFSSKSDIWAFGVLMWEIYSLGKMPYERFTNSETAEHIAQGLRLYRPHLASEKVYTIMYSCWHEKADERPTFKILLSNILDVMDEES

B-Raf V600E = target: T6, B-Raf V600E (Homo sapiens, UniProt P15056, V600E); test: AlphaScreen kinase assay, B-Raf V600E; conditions: read-out: IC50, activity toward kinase B-Raf V600E
T6 construct: P4254. pFastBacBD-CDC37 BRAF D437-K722-X, V600E; His6 with pFastBac HT leader (TEV site) (N); made in house; host or cells: Sf9 (baculovirus; chaperone CDC37 co-expressed)
T6 sequence (P15056 with tags, fused parts or gaps V600E): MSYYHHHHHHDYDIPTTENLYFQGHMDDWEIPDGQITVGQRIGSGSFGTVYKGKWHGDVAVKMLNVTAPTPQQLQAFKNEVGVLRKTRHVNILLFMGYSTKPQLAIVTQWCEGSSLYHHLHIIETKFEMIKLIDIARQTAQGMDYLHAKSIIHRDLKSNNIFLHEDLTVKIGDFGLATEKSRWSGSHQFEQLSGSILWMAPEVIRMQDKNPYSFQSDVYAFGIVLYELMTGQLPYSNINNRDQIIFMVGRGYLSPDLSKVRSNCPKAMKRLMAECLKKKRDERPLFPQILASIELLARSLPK

Kdr = target: T7, Kdr (Homo sapiens, UniProt P35968); test: Z'-Lyte FRET kinase assay (Invitrogen), Kdr; conditions: read-out: IC50, activity toward kinase Kdr
T7 construct: purchased Invitrogen (assay run by Invitrogen)
T7 sequence (P35968 20-1356): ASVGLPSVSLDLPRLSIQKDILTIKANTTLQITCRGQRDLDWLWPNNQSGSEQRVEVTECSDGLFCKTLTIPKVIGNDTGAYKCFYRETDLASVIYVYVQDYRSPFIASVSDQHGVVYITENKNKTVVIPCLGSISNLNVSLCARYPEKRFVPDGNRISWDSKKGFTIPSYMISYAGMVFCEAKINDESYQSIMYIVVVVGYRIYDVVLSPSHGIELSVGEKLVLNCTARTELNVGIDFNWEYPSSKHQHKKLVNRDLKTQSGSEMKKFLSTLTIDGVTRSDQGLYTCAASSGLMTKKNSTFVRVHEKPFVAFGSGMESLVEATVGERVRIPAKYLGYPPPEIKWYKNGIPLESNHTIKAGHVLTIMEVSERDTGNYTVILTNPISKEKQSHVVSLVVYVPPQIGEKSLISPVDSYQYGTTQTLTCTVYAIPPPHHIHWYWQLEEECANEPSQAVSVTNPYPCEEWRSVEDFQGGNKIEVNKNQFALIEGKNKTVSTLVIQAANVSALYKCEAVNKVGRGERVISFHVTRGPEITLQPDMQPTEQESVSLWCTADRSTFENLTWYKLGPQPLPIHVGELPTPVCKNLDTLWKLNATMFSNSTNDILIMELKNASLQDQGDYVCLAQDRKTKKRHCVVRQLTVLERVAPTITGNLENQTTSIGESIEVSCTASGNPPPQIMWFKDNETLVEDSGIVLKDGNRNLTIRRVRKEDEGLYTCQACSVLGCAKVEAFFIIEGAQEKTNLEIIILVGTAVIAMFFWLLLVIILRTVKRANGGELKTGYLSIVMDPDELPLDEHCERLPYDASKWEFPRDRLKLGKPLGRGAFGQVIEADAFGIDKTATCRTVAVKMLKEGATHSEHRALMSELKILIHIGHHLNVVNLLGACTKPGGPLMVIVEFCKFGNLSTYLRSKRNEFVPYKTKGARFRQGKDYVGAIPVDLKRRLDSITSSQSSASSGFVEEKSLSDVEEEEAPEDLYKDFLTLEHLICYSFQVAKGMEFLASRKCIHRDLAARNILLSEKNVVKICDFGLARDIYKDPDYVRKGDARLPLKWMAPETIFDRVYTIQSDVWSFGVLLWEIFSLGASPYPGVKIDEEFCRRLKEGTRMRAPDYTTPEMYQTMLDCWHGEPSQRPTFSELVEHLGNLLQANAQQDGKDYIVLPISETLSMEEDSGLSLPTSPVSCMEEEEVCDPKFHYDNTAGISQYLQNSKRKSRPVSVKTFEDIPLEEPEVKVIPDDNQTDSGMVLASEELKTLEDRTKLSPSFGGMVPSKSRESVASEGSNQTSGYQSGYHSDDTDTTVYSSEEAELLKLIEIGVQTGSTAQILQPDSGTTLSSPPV

IKK beta = target: T8, IKK beta (Homo sapiens, UniProt O14920); test: AlphaScreen kinase assay, IKK beta; conditions: read-out: IC50, activity toward kinase IKK beta
T8 sequence (O14920 1-756): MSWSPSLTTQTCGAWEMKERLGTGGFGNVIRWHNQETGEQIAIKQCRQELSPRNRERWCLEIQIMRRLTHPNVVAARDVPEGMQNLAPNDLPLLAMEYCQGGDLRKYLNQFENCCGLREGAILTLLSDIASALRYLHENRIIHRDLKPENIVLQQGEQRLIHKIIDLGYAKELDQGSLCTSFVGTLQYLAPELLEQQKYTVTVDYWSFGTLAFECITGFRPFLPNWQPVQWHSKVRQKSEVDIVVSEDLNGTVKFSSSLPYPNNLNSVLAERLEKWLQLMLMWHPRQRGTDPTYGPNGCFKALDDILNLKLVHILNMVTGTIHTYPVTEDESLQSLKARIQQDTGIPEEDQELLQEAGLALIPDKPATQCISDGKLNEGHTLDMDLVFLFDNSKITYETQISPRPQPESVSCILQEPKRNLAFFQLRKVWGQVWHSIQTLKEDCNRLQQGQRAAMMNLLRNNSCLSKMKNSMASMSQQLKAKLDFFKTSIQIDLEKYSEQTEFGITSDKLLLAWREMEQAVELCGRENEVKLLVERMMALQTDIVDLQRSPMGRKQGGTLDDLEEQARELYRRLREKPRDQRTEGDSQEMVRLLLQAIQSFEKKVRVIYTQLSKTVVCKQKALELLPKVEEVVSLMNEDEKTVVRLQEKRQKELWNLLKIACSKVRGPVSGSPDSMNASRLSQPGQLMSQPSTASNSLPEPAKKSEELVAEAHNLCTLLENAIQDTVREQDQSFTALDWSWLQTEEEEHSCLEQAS
Description: (§4) AlphaScreen assays were done using compounds dissolved in DMSO to a concentration of 20 mM. The compounds were diluted accordingly to the desired final concentrations in each sample well, using 1:3 serial dilution for a total of 8 concentration points. Plates were prepared such that each kinase reaction is 20 μl in 1× kinase buffer, 5% DMSO and 10 μM ATP. After incubation of the kinase reaction for 1 hour at room temperature, 5 μl of donor beads in stop buffer (50 mM EDTA in 1× kinase buffer) was added, the sample was mixed and incubated for 20 minutes at room temperature before adding 5 μl of acceptor beads in stop buffer. The samples were incubated for 60 minutes at room temperature and the signal per well was read on AlphaQuest reader.

IGF1R = IGF1R (Homo sapiens, UniProt P08069); test: AlphaScreen kinase assay, IGF1R; conditions: read-out: IC50, activity toward kinase IGF1R
Description: as §4

Jak3 = target: T9, Jak3 (Homo sapiens, UniProt P52333); test: AlphaScreen kinase assay, Jak3; conditions: read-out: IC50, activity toward kinase Jak3
T9 sequence (P52333 1-1124): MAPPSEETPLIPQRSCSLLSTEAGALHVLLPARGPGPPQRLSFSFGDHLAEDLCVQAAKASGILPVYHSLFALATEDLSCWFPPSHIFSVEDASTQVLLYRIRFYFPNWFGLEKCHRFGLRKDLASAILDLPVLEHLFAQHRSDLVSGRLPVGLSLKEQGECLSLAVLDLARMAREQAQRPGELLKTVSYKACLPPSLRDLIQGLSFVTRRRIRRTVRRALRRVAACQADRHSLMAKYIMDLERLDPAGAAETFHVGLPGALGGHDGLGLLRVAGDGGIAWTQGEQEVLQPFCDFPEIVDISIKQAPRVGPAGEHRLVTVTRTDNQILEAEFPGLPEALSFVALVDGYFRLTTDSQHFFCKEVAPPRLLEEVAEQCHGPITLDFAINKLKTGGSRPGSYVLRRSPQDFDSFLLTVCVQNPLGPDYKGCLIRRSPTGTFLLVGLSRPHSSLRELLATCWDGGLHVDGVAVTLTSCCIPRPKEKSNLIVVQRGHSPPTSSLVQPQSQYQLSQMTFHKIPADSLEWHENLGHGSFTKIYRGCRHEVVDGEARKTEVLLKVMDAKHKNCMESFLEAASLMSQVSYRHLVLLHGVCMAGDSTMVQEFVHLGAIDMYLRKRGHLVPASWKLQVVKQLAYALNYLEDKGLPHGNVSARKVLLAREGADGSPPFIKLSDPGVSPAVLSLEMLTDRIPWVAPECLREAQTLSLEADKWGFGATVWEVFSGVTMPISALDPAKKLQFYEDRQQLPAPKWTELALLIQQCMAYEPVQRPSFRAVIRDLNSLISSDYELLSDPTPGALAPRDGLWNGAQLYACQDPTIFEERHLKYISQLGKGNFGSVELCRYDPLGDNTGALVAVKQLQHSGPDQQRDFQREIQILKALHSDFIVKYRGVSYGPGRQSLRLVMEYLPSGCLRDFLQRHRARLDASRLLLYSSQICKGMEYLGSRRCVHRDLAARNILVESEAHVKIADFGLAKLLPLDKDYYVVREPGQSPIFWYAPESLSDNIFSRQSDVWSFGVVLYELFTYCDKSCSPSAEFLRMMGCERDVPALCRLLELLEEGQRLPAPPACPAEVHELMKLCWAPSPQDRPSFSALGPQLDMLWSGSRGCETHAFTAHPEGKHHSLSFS
Description: as §2, §3

Met = target: T10, Met (Homo sapiens, UniProt P08581); test: AlphaScreen kinase assay, Met; conditions: read-out: IC50, activity toward kinase Met
T10 construct: P1818.pETN6 BI-PTP MET G1056-G1364-X WT; His6 (N); made in house; host or cells: E. coli (PTP1B co-expressed)
Summary of the method: as §1

c-Raf-1 = target: T11, c-Raf-1 (Homo sapiens, UniProt P04049); test: AlphaScreen kinase assay, c-Raf-1; conditions: read-out: IC50, activity toward kinase c-Raf-1
T11 construct: purchased Upstate Biotechnology
T11 sequence (P04049 whole entry): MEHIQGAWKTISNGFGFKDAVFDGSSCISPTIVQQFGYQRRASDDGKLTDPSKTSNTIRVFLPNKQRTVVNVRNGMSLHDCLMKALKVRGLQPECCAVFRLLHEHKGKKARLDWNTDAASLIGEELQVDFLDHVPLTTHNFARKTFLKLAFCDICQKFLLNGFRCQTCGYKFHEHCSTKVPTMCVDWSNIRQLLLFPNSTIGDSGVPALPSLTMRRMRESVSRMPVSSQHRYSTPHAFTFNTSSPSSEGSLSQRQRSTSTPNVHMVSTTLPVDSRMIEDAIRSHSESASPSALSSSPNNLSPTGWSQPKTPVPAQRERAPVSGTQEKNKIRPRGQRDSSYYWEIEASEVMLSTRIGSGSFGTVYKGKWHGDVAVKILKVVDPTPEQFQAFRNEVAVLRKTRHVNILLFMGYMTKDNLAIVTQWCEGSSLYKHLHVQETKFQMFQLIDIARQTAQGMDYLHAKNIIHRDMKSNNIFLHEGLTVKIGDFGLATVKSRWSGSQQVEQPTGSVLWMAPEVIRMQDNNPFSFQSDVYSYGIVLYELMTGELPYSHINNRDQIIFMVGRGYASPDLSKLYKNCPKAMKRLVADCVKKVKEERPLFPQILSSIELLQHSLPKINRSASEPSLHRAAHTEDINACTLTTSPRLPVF

B-Raf = target: T12, B-Raf (Homo sapiens, UniProt P15056); test: AlphaScreen kinase assay, B-Raf; conditions: read-out: IC50, activity toward kinase B-Raf
T12 construct: purchased Upstate Biotechnology
T12 sequence (P15056 whole entry): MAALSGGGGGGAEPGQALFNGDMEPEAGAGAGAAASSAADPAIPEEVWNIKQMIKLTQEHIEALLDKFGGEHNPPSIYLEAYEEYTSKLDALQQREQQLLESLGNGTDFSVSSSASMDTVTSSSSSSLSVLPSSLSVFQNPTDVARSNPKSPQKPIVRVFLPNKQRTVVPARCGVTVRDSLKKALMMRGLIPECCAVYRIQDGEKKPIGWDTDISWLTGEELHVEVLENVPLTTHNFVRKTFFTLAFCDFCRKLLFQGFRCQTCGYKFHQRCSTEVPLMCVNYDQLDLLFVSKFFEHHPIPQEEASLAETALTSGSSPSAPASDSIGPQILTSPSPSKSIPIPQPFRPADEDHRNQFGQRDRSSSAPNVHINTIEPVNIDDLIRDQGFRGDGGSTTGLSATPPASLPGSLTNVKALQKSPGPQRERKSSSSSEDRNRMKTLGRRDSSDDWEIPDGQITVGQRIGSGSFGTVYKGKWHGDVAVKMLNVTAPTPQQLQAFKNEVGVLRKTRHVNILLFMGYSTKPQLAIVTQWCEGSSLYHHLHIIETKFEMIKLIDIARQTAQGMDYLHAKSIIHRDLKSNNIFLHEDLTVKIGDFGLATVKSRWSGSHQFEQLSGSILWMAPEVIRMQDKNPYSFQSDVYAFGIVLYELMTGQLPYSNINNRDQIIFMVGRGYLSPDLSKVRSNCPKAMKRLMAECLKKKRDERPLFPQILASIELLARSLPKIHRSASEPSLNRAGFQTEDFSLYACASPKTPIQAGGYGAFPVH

FGFR1 = target: T13, FGFR1 (Homo sapiens, UniProt P11362, C488A/C584S); test: AlphaScreen kinase assay, FGFR1; conditions: read-out: IC50, activity toward kinase FGFR
T13 construct: P1351.pET N6 BI-PTP FGFR A458-E765-X C488A, C584S; made in house; host or cells: E. coli (PTP1B co-expressed)
T13 sequence (P11362 458-765 C488A/C584S): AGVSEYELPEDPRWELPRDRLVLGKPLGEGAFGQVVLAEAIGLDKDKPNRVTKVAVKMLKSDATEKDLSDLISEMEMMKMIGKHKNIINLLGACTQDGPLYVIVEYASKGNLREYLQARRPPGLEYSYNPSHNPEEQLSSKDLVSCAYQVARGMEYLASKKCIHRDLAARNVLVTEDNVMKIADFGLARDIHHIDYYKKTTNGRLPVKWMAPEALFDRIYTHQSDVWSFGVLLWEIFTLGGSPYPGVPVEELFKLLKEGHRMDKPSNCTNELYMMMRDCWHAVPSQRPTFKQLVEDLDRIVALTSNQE

Pyk2 = target: T14, Pyk2 (Homo sapiens, UniProt Q14289); test: AlphaScreen kinase assay, Pyk2; conditions: read-out: IC50, activity toward kinase Pyk2
T14 construct: purchased Upstate Biotechnology

Measured: IC50

Gsk3β, sequence (P49841 whole entry): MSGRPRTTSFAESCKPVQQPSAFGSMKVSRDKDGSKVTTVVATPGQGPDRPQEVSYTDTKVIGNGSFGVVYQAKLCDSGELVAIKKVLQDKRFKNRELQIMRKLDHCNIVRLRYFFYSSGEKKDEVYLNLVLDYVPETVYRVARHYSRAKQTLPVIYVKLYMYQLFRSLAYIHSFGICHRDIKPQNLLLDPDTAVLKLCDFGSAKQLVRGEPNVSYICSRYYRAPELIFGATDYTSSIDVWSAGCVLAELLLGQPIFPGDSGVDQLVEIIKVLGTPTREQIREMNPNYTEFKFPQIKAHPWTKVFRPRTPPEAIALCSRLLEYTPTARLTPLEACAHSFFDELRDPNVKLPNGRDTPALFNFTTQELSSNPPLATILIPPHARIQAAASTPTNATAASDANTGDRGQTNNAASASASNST

Clc1ccc(Cc2c[nH]c3nccc(-c4ccsc4)c23)cn1 [Compound P-0123]
≤ 10 µM: Gsk3β | Kit | Zap70 | Ret | Stk6 | Plk1

NC(=O)c1ccc(-c2ccnc3[nH]cc(C(=O)c4ccc(Cl)cc4)c23)cc1 [Compound P-0085]
≤ 10 µM: Btk | Gsk3β | B-Raf V600E | Ret | Kdr | IKK beta | Plk1

c1cc(-c2noc(C3CC3)n2)c2cc[nH]c2n1 [Compound P-0128]
≤ 10 µM: Kdr | IKK beta | Stk6 | Plk1

NC(=O)c1cccc(-c2ccnc3[nH]cc(C(=O)c4ccc(Cl)cc4)c23)c1 [Compound P-0135]
≤ 10 µM: Btk | Gsk3β | B-Raf V600E | Ret | Kdr | IKK beta | Plk1

COc1ccc(-c2cnc3[nH]ccc3c2)cc1OC [Compound P-0212]
≤ 10 µM: IGF1R | Kdr | Stk6

OCc1cccc(-c2ccnc3[nH]cc(Sc4ccccc4)c23)c1 [Compound P-0146]
≤ 10 µM: Jak3 | B-Raf V600E | Met | Stk6 | Plk1

O=C(c1cc(O)ccc1F)c1c[nH]c2nccc(-c3ccccc3)c12 [Compound P-0863]
≤ 10 µM: Jak3 | c-Raf-1 | B-Raf V600E | Ret | B-Raf | Plk1

CC(C)S(=O)(=O)Nc1ccc(F)c(C(O)c2c[nH]c3ncc(Br)cc23)c1F (stereo not drawn) [Compound P-0178]
≤ 10 µM: FGFR1 | Jak3 | c-Raf-1 | B-Raf V600E | Pyk2 | B-Raf | Plk1
